In patent US20240190993A1, “NEW METHOD TO IMPROVE THE ANTI-TUMORAL ACTIVITY OF MACROPHAGES” (INSERM (INSTITUT NATIONAL DE LA SANTÉ ET DE LA RECHERCHE …, priority 2021, published 2024):
Entries after “also recorded” stand apart in the source; their conditions may differ.

Columns and labels:
CD47 [1] = test: CD47 cell-surface expression in NXS2 cells in vitro, flow cytometry; format: cell-based, mouse; conditions: 72 hours incubation, FIG. 2A-C
Method: (§1) FIG. 2. Both O-acetyl GD2-specific monoclonal antibody 8B6 and 13-cis-RA exposures induce CD47 phagocytosis checkpoint up-regulation in NB cells in vitro. The NB cells IMR5, LAN1 and NXS2 were respectively incubated for 72 hours with (A) 13-cis-RA, (B) mAb 8B6, and (C) 13-cis-RA plus mAb 8B6, as indicated. After incubation, CD47 cell surface expression was analyzed by flow cytometry analysis. […] Data are presented as the mean±SEM ([…]; **p<0.01; ***p<0.001; Mann-Whitney test).
(§2) We next interrogate the impact of mAb 8B6, used alone or in combination with 13-cis-RA, on CD47 cell-surface expression in human NB cell line. After 72 hours incubation, cells were harvested, stained with a CD47-specific mAb and then subjected to flow cytometry analysis. […] The tested treatments had little impact on CD47 NXS2 cell-surface expression (FIG. 2A-C).

NXS2 cells = test: syngeneic model of NXS2 NB liver metastasis in A/J mice, liver weight; format: in vivo, mouse
Method: Depletion of macrophages in 8-week-old A/J mice was performed clodronate liposomes or liposomes obtained from Liposoma (Liposoma BV, Amsterdam, the Netherlands) according to the manufacturer's instructions. Mice were given either clodronate liposomes or liposome i.p. 4 days before tumor cell injection and thereafter on days 0, 3, 7, 10, 14, 17, and 21 post-tumor cell inoculation. The effectiveness of macrophage depletion was determined by flow cytometry analysis of CD45+F4/80+CD11b+Ly6G-Ly6Clow-int cells among splenocytes from the treated animals.
NXS2 Cells (2.5×10^5 in 100 μL of PBS) were transplanted into syngeneic 8-weeks old female A/J mice (Harlan Laboratories, Gannat, France) i.v., to induces liver metastasis 6. Mice received either mAb 8B6 (25 μg, i.v.) or mAb P84 (200 μg, i.p.) twice a week for 3 consecutive weeks beginning 3 days after tumor cell injection. Isotretinoin was given orally diluted in Ora-Plus® at 10 mg/kg daily for 5 consecutive days, starting week 3 after tumor cell challenge. Mice were euthanized on day 27 post-tumor challenge. Anti-tumor efficacy was evaluated by liver weight of the fresh specimen as described previously 6.

CD47 [2] = test: CD47 cell-surface expression in human NB cell lines in vitro, flow cytometry; format: cell-based; conditions: human NB cell lines IMR5, LAN1; 72 hours incubation; FIG. 2A-C
Method: as §1, §2

CC1=C(/C=C/C(C)=C/C=C/C(C)=C\C(=O)O)C(C)(C)CCC1 [13-cis-RA, 13-cis-retinoic acid]
CD47 cell-surface expression (CD47 [1]): induces up-regulation of CD47 | liver weight (NXS2 cells; FIG. 1B, day 27 after i.v. NXS2 inoculation, 8 mice/group, 8B6 i.v. days 3,7,10,14,17,21, 13-cis-RA 10 mg/kg per os): 1.19 ± 0.0 g | liver weight (NXS2 cells; FIG. 4B, day 27, 8B6 25 μg i.v., P84 i.p. days 3,7,10,14,17,21, 13-cis-RA 10 mg/kg per os days 17-21): 1.95 ± 0.12 g | CD47 cell-surface expression (CD47 [2]): induces up-regulation of CD47; also recorded: induced CD47 up-regulation
